Reference: PubChem BioAssay (NCI)
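Tested at 5 concentrations; 48 h exposure; 96-well plates; endpoints linearly interpolated, else capped at highest concentration. GI50 marks 50% less growth. At the TGI there is no net growth.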

Tests used:
Assay in all cases: NCI-60 cell line screen, 48 h
NCI-H460 lung = test system: NCI-H460 lung
K-562 leukemia = test system: K-562 leukemia
UO-31 renal = test system: UO-31 renal
HCC-2998 colon = test system: HCC-2998 colon
SK-MEL-28 melanoma = test system: SK-MEL-28 melanoma
PC-3 prostate = test system: PC-3 prostate
COLO 205 colon = test system: COLO 205 colon
UACC-62 melanoma = test system: UACC-62 melanoma
SR leukemia = test system: SR leukemia
OVCAR-3 ovarian = test system: OVCAR-3 ovarian

Compound	TGI (NCI-H460 lung) [µM]	TGI (K-562 leukemia) [µM]	TGI (UO-31 renal) [µM]	TGI (HCC-2998 colon) [µM]	TGI (SK-MEL-28 melanoma) [µM]	TGI (PC-3 prostate) [µM]	TGI (COLO 205 colon) [µM]	TGI (UACC-62 melanoma) [µM]	TGI (SR leukemia) [µM]	GI50 (UO-31 renal) [µM]	GI50 (HCC-2998 colon) [µM]	GI50 (SK-MEL-28 melanoma) [µM]	GI50 (PC-3 prostate) [µM]	GI50 (COLO 205 colon) [µM]	GI50 (UACC-62 melanoma) [µM]	GI50 (OVCAR-3 ovarian) [µM]	TGI (OVCAR-3 ovarian) [µM]
COc1ccc(C(=O)/C=C/c2ccc(OCCCCCCCCCCOc3ccc(/C=C/C(=O)c4ccc(OC)c(OC)c4)cc3)cc2)c(OC)c1	> 100	> 100	> 100	> 100	> 100	> 100	> 100	> 100	> 100								
CCc1ccc(OCc2ccccc2C(=O)Nc2ccc3nc(C)cc(N)c3c2)cc1			2.84	3.24	3.29	2.93	0.692	3.02		1.44	1.64	1.75	1.52	0.24	1.6	1.62	3.04
CN(C)CCN1C(=O)N(CCN(C)C)c2c3cc(O)ccc3nc3c([N+](=O)[O-])ccc1c23	26.4	14.5	33.9	25.8	58.5	75	23.3	30.8	0.807								
Clc1sc(Cl)c2c1[C@H](Br)C[C@@H]2Cl	> 100	> 100	43.8	> 100	71	> 100	44.3	69.1	39.5								64.9
CC1CCc2sc3[nH]c(=S)n(C)c(=O)c3c2C1 (centres undefined)	> 100	> 100	33.6	82.5	> 100	72	> 100	> 100	> 100								62.4
O=C(O)Cn1c[n+](NC(=O)Cc2ccccc2)cn1	> 10	> 10	> 10	> 10	> 10		> 10	> 10	> 10								> 10
CC(C)NC(=O)OCc1c(COC(=O)NC(C)C)n(C)c2c1ccc1cc(Cl)c(Cl)cc12	16.3	> 100	32.8			29	22.8	28	30.6								31.1
CC(=O)Oc1ccc2c(c1)O/C(=C\c1ccc(O)cc1)C2=O	> 100	> 100	> 100	> 100	> 100	> 100	> 100	> 100	> 100								> 100
O=C1c2c(Br)sc(Br)c2[C@H]2OC(=S)N[C@@H]12	34.2	6.35	3.34	22.4	7.94	14	5.58	24.1	5.19								7.26
Fc1ccc(OCc2ccc3nc(-c4ccccc4)c(Cl)nc3c2)cc1	> 100		> 100	> 100	> 100	> 100	> 100	> 100	40.8								> 100
CCOP(=O)(CC1OC(CO)C(O)C1O)OCC (centres undefined)	> 100	> 100	> 100	> 100	> 100	> 100	> 100	> 100	> 100								> 100
O=C1CN(c2ccccc2)C(=O)C1C(=O)Nc1ccc(Cl)c(Cl)c1 (centres undefined)		8.88	11.7		21.4		20.4	12.4	5.87								12.6
Cn1c(=O)c2[nH]c(Nc3cccc(Cl)c3)nc2n(C)c1=O		> 10		> 10	> 10	> 10	> 10	> 10									
Cc1nn(C(=O)c2ccccc2O)c2c1C(c1ccc([N+](=O)[O-])cc1)SC(N)=N2 (centres undefined)	> 10	> 10	> 10	> 10	> 10	> 10	> 10	> 10	> 10								9.95
COc1ccc2c(c1)CCC(CN1CCN(CCOC(c3ccccc3)c3ccccc3)CC1)C2O (centres undefined)	35.8	44.1	30	16.1	31.9	26.3	27.7	26.7	69.8								31.8
CN1C2CCC1C(CO)C(=O)C2 (centres undefined)	> 100	72		> 100	> 100	> 100	32.8	> 100	75.7								> 100
CSc1ncnc2c1cnn2Cc1cn(COCC(O)CO)nn1 (centres undefined)			> 100	> 100	> 100	> 100	> 100	> 100	> 100								> 100
CC(=O)N=S(NC(=O)c1ccc(C)cc1)C(Cl)(Cl)Cl (centres undefined)	> 100	> 100	56	30.5	> 100	> 100	45.3	> 100									52
C/C(=C\CO)CC[C@@H]1[C@@]2(C)CCCC(C)(C)[C@@H]2CC[C@@]1(C)O	31.3	34.7	50.3	29.5	43.2	30	32.7	27.1									27.6
COc1cccc(Nc2nc3c([nH]2)c(=O)n(C)c(=O)n3C)c1		> 10		> 10	> 10	> 10	> 10	> 10	> 10								
Nc1cc2nc(-c3ccccc3)cn2cn1	> 100	> 100	> 100		> 100	> 100	> 100	> 100									> 100
COc1ccc(C(=C2C(=O)OC(=O)C2=C(C)C)c2ccc(OC)cc2)cc1	> 100		> 100	> 100	> 100	> 100	> 100	> 100	> 100								47.5
O=c1cccc2n1CC1CNCC2C1 (centres undefined)	> 100	> 100	> 100	> 100	> 100	> 100	> 100	> 100									> 100

Compound	TGI (NCI-H460 lung) [µM]	TGI (K-562 leukemia) [µM]	TGI (UO-31 renal) [µM]	TGI (HCC-2998 colon) [µM]	TGI (SK-MEL-28 melanoma) [µM]	TGI (PC-3 prostate) [µM]	TGI (COLO 205 colon) [µM]	TGI (UACC-62 melanoma) [µM]	TGI (SR leukemia) [µM]	GI50 (UO-31 renal) [µM]	GI50 (HCC-2998 colon) [µM]	GI50 (SK-MEL-28 melanoma) [µM]	GI50 (PC-3 prostate) [µM]	GI50 (COLO 205 colon) [µM]	GI50 (UACC-62 melanoma) [µM]	GI50 (OVCAR-3 ovarian) [µM]	TGI (OVCAR-3 ovarian) [µM]
C[C@@](Br)(C(=O)O)[C@H](Br)C(=O)O	> 100	> 100	> 100	> 100	> 100	> 100	> 100	> 100									> 100
COc1ccccc1Cn1c2c(c3cc(O)ccc31)C(=O)c1ccccc1C2=O	> 100	> 100	> 100		> 100	53.5	> 100	82.9	> 100								> 100
CC(=O)OC1COC(N2c3ccccc3[C@@H]3CCc4c([nH]c5ccccc45)[C@@H]32)C(OC(C)=O)C1OC(C)=O (mixture of isomers)	> 100		> 100	> 100	> 100	> 100	> 100	> 100	> 100								> 100
COc1cc2c3cc1Oc1cc(ccc1O)C[C@@H]1c4c(cc(OC)c(O)c4Oc4ccc(cc4)C[C@@H]3[N+](C)(C)CC2)CC[N+]1(C)C	> 100	> 100	> 100		> 100	> 100	> 100	> 100	> 100								> 100
Cc1ccc(S(=O)(=O)N2CCc3cc(O)c([N+](=O)[O-])cc32)cc1			> 100		> 100	> 100	> 100	> 100									
CC1=NN(c2cccc(Cl)c2)C2(C1=Cc1ccc(N(C)C)cc1)C(Cl)C(=O)N2c1nc2ccccc2s1 (centres undefined)	> 100	> 100	> 100	41.8	> 100	> 100			> 100								> 100
CC12CCC(=O)[C@@]1(C)CCCC2=O (some centres undefined)	> 100	> 100	> 100	> 100	> 100	> 100	> 100	> 100	> 100								
C[C@@H](CCO)OC1OC(COC(=O)C(C)(C)C)C(OC(=O)C(C)(C)C)C(OC(=O)C(C)(C)C)C1OC(=O)C(C)(C)C (some centres undefined)	36.6	> 100		31.4	> 100	> 100	> 100	> 100	> 100								> 100
CCc1nc2c([nH]1)C(=O)c1ccccc1C2=O	> 100	> 100	> 100	> 100	> 100			> 100	> 100								61.7
O/N=C/[C@H]1COC2(CCCCC2)O1		> 100	> 100		> 100	> 100	> 100	> 100									> 100
O=C(O)CCSc1ncnc2nc[nH]c12	> 100	> 100	> 100	> 100	> 100	> 100	> 100	> 100									> 100
COC(=O)c1ccc2cc(O)ccc2c1		> 100	> 100	> 100	> 100	> 100	> 100	> 100	81.9								> 100
CC1OC2OC3C(OCC(O)C3O)OC(=O)[C@]34CCC(C)(C)CC3C3=CCC5[C@@]6(C)C[C@H](O)[C@H](OC7OC(CO)C(O)C(O)C7OC7OC(COC(=O)CC(C)(O)CC(=O)OC1C(OC1OC(CO)C(O)C(O)C1O)C2O)C(O)C(O)C7O)[C@@](C)(CO)C6CC[C@@]5(C)[C@]3(C)CC4 (some centres undefined)	19.8		5.31	2.65	2.58	6.85	4.52	3.38	12.4								15.2
CC(=O)Nc1ccc2c(c1)nc1c3ccccc3ccn21	> 100	> 100	> 100		> 100	> 100	> 100	> 100	> 100								
O=c1ccn([C@@H]2C=C(CO)[C@@H](O)[C@H]2O)c(=O)[nH]1	> 625		> 625	> 625	> 625		> 625	> 625									> 625
COc1ccc(CCn2ccc(=O)c(O)c2C)cc1OC	31.2	> 100				> 100	> 100		> 100								
O=C(/C=C/CC(O)(c1ccccc1)c1ccccc1)Nc1ccccc1Cl	> 100	> 100	> 100	> 100	> 100		> 100	> 100	> 100								> 100
Cc1cccc2c(N)c3cccc(C(=O)NCC[N+](C)(C)[O-])c3nc12	10.2	> 100	> 100	24.5	45.2	60.4	40.4	26.8									> 100
CN(C)CN1C(=O)/C(=N\n2c(-c3ccncc3)n[nH]c2=S)c2ccccc21	> 100	> 100	57		> 100	> 100	> 100	> 100									> 100
COC(=O)[C@@H]1[C@H]2CC[C@]3(C)[C@@H](OC(C)=O)CC[C@H]3[C@@H]2CC[C@H]1C1(C)SCCS1	97.8	94	> 100	86.2	> 100	86	29.3	> 100									88.5
Oc1ccc(C[C@@H]2CN[C@H](Cc3ccc(O)c(Br)c3)CN2)cc1			> 100	> 100	> 100	> 100	> 100	> 100	> 100								> 100
CCOP(=O)(COCCn1nc(Br)c(=O)[nH]c1=O)OCC	> 100	> 100	> 100	> 100	> 100	> 100	> 100		> 100								> 100
O=C1c2cccnc2C(=O)c2c1nc1ccccc1c2-c1ccc2c3c(nc4ccccc42)C(=O)c2cccnc2-c13	3.97	> 35.3	4.62	9.28	13.5	37.2	5.68	5.1	0.34								
